The values that follow come from publication PMC10115881, “Disrupting the α-synuclein-ESCRT interaction with a peptide inhibitor mitigates neurodegeneration in preclinical models of Parkinson’s disease” (Nature Communications, 2023).

In one assay the test system is A53T a-syn. The assay is described as follows: Human a-syn immunoblot of cortical neuron lysates. Type of assay: cell-based. The conditions noted are these: neuronal lysates. How it is done:
Pregnant rats (E17) of the Sprague-Dawley strain were purchased from Envigo. Embryos were surgically removed from the mothers and cortices dissected in Hanks Balanced salt solution (Gibco). The meninges were removed, and cells were dissociated using a papain dissociation system (Worthington) before being resuspended in Neurobasal medium A supplemented with antibiotic-antimycotic solution (Gibco), L-glutamine substitute (GlutaMAX™; Gibco) and factor B27 (Gibco). Cells were plated on poly-D-lysine coated glass coverslips at a density of 5 × 10^5 cells/well, or on poly-D-lysine coated six-well cell culture plates at a density of 2 × 10^6 cells/well, and incubated at 37 °C in 5% CO2 with half media changes every 3 days. Cells were transduced with A53T a-syn or EV AAVs at 2 days post-isolation at a MOI of 3000. After 3 days, media containing AAV vectors were removed. […] Cells were fixed with 4% paraformaldehyde (PFA) for immunofluorescence staining or lysed for immunoblotting at 8 days post-isolation.
Infected neurons were scraped from 6-well dishes and lysed with RIPA buffer containing protease inhibitor cocktail (Roche). The Triton-X-100 soluble fraction was then separated from the insoluble pellet by centrifugation. Protein concentration was quantified using the DC protein assay (BioRad). […]
(Immunoblotting shows a protein as a band on a membrane.)

The test system of assay [1] is endolysosomal flux in SNCA triplication fibroblasts. As to the kind of experiment: Endolysosomal flux assay, confocal microscopy, SNCA triplication fibroblasts. Type of assay: cell-based, human. How it is done:
Flux via the endolysosomal pathway was measured with the Lysosome Intracellular Activity Assay Kit which was purchased from Abcam (ab234622) and used according to the manufacturer’s instructions. The kit provides a proprietary lysosome-specific self-quenched substrate which has low background fluorescence, high signal-to-background ratio, and is pH insensitive. In the assay, the substrate is taken up by cells and acts as endocytic cargo which is degraded within an endolysosomal vesicle. Following degradation, the fluorescence signal recovered from the substrate is proportional to the intracellular lysosomal activity. The activity can be measured by fluorescence microscopy or FACS. The assay was performed with HEK293T cells or SNCA triplication fibroblasts (obtained from NINDS Human Genetics Resource Center DNA and Cell Line Repository; NINDS Repository sample number ND27760). Cells were maintained in DMEM supplemented with 10% FBS and 1% pen/strep/glutamine. Cell medium was replaced with fresh medium containing DMSO, Leupeptin, or Bafilomycin A1 and incubated for 1 h at 37 °C with 5% CO2. Self-quenched substrate was added into each condition and incubated for 1 h (HEK293T cells) or overnight (SNCA triplication fibroblasts) at 37 °C with 5% CO2. […] For HEK293T cells, cells were resuspended in PBS containing DMSO or Leupeptin and analyzed by FACS. […]

Assay [2] deals with A53T a-syn-mediated cytotoxicity in HEK293 cells. As to the kind of experiment: Pooled lentiviral 7-mer peptide cytotoxicity screen, A53T a-syn + MG132.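 On Slope Norm Reads: reads normalized to total peptide reads per sample with scalar factor.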 The format is cell-based, human. An excerpt:
We used a lentiviral library of 50,549 7-mer peptides enriched in PPI motifs[13] on a green fluorescent protein (GFP) scaffold (Fig. 1A). We infected cells in a pooled format and the amino acid sequence of each peptide served as its own barcode. By using a low multiplicity of infection followed by puromycin selection, each infected cell expressed one unique GFP-peptide. We screened for peptides that reduced a-syn-mediated cytotoxicity or a-syn oligomers in parallel (Fig. 1A). To cause cytotoxicity relevant to PD, we induced proteostatic stress in HEK293 cells by inhibiting the proteasome with MG132 and overexpressing human WT a-syn associated with idiopathic PD in one screen or the more toxic mutant A53T a-syn associated with familial PD in a second screen. This combination of a-syn overexpression and pharmacological proteasome inhibition led to death of most cells, with only those that expressed a protective peptide surviving. By extracting genomic DNA from the surviving cells and amplifying the peptide coding sequences, we identified the protective peptides (Fig. 1A). To detect a-syn oligomers, we used a protein fragment complementation assay (PCA) of a-syn oligomerization in HEK293 cells. In this assay, human A53T a-syn was fused to either the C- or N-terminal half of yellow fluorescent protein (YFP). No fluorescence is detectable while a-syn exists in monomers but, when a-syn oligomerizes, the two halves of YFP come in close enough proximity to form a functional, spontaneously fluorescent protein. […] Our screens yielded 10 hits (Table S1). The hit with the most reads (i.e., the most abundant) was the same peptide in all screens: IPIQLKA (named PDpep1) (Table S1). We validated the cytoprotective effects of PDpep1 in HEK293 cells overexpressing WT or A53T a-syn (Figs. 1B, S1A), as well as its ability to reduce WT or A53T a-syn oligomers in a luciferase-based PCA[18]–[20] compared to a scrambled control peptide (Figs. 1C, S1B).
HEK293T cells (ATCC, CRL-3216) were maintained in DMEM supplemented with 10% FBS and 1% pen/strep/glutamine, and the appropriate selection antibiotics when required. Lentiviruses were made in a 15 cm dish format by transfecting packaging cells (HEK293T) with a three-plasmid system (expression vector, psPAX2 and pMD2.G) and using Polyjet DNA transfection reagent (FroggaBio, SL100688.1). Viral transduction of HEK293T cells were performed with a multiplicity of infection (MOI) of 0.3. Infected cells were selected in puromycin-containing medium to eliminate uninfected cells and three aliquots of cells were collected for sampling of the initial (T0) cell population. Cells were treated with MG132 at concentrations of 0, 10, 25, or 50 µM. For the cell viability screen, surviving cells were collected and gDNA was extracted for identification of peptide inhibitors of cell toxicity. For the inhibition of a-syn aggregation screen, a protein fragment complementation assay (PCA) was used by transfecting cells with split YFP-a-syn constructs following stable expression of the peptides. Cells were sorted based on their YFP fluorescence intensities with a FACSVantage SE cell sorter (BD Bioscience) and gDNA was extracted for identification of peptides.
Genomic DNA (gDNA) from peptide expressing cells at different time-points was extracted using QIAamp DNA Blood Mini Kit. PCR amplifications of peptides from gDNA in parallel with the lentiviral plasmid library (naïve library) were performed using indexed Illumina PCR primers to incorporate both the Illumina adapter sequences and indexing sequences. Each 50 μl reaction contained 3.2 μg of template, 2× PCR buffer, 2× enhancer solution, 300 μM each dNTP, 900 nM each of Adapter A (5′-[…]-[…]-3′) and Adapter B (5′-[…]-[…]-3′), 1 mM MgSO4, 3.75 units of Platinum Pfx polymerase, and water to 50 μl. […]

With DEEIERQLKALG [PDpep1.3], in the assay on A53T a-syn, the “Effect on total A53T a-syn protein” value is reported as “corresponding reduction in total A53T a-syn protein levels”. The “Effect on endolysosomal flux in fibroblasts” value in assay [1] is given as “increased endolysosomal flux”.

In the case of “IPIQLKA [PDpep1, initial screen hit peptide IPIQLKA]”, in assay [2], the “Reads 10M MG132” value is recorded as 20, the “Reads 25M MG132” value amounted to 3859, the “Reads 50M MG132” value is listed as 13308 and the “Slope Norm Reads” value is reported as 40.54. In assay [2] (Illumina reads, average Phred >30), the “Reads 0M MG132” value is on record as 168.
